Measured values published in US20120277161A1, “INHIBITION OF MULTIPLE CELL ACTIVATION PATHWAYS” (INTER-K PTY LIMITED, priority 2009, published 2012).

Assays:
[1] = system: HT-29 human colon cancer cells; assay: Apoptosis assay (FITC Annexin V / PI, FACS); assay type: cell-based; details: 10 μM, 4 hours; FIG. 11
Experimental: The cells were harvested by trypsinisation, washed twice in HBSS and counted counted using Trypan Blue staining. The cells were then re-suspended in the appropriate culture medium to a concentration of 1×10^6 cells/mL. […] The cells were allowed to attach to the plate for 1 h. […] Cells were then harvested by trypsinisation, washed twice in cold phosphate buffered saline (PBS) and then resuspended in 1× binding buffer. 100 μL of the cell suspensions containing 1×10^5 cells were transferred to a 5 mL plastic tube. […] Three controls were also analysed: unstained cells, cells stained only with Annexin V and cells stained only with PI. The data was presented as the percentage of cells being either Annexin V positive only (excluding PI positive cells), PI positive (total) or Annexin V and PI positive (double stain).

human Yes = human Yes (Homo sapiens, UniProt P07947); assay: Yes kinase activity assay; assay type: biochemical; details: 20 μM
human Yes, sequence (P07947 whole entry): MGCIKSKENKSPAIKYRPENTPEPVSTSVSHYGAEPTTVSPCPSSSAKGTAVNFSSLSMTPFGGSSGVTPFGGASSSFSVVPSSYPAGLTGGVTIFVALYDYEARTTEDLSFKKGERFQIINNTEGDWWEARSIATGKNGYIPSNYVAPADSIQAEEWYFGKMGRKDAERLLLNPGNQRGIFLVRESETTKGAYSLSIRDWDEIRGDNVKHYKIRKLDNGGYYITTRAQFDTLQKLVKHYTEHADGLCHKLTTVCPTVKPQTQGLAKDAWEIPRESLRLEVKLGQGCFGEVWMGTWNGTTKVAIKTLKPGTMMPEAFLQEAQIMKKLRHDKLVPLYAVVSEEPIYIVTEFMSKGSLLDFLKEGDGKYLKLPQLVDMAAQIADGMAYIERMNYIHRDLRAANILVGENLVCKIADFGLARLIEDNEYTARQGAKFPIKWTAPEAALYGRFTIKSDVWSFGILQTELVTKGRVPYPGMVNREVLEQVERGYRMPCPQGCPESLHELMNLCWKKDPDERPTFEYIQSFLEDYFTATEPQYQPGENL
Experimental: In a final reaction volume of 25 μl, human Yes is incubated with the RSKAKNPLYR peptide (SEQ ID No: 6) in 8 mM MOPS buffer pH 7.0, 0.2 mM EDTA, 0.1 mg/ml poly(Glu,Tyr) 4:1, 10 mM Mg acetate and [γ-33P-ATP] (specific activity approx. 500 cpm/pmol). The reaction is initiated by the addition of the MgATP mix, incubated for 40 minutes at room temperature prior to being stopped and kinase activity assessed by scintillation counting again as per the protocol described for c-Src in Example 1.1.

[2] = system: MCF-7 breast cancer cells; assay: MTT growth/proliferation, MCF-7 cells; assay type: cell-based; details: 48 hours
Experimental: (§1) In this study, the cells were incubated in the presence of the dendrimer for 48 hours. Cell lines were maintained at 37° C. in a humid atmosphere containing 5% CO2. Cells were passaged at pre-confluent densities using a solution containing 0.05% trypsin and 0.5 mM EDTA (Invitrogen).

c-RAF (h) = c-RAF (h) (Homo sapiens, UniProt P04049); assay: c-RAF kinase activity assay; assay type: biochemical
Experimental: In a final reaction volume of 25 μL, c-RAF (h) (5-10 mU) is incubated with 25 mM Tris pH 7.5, 0.02 mM EGTA, 0.66 mg/mL myelin basic protein, 10 mM MgAcetate and [γ-33P-ATP] (specific activity approx. 500 cpm/pmol, concentration as required). The reaction is initiated by the addition of the MgATP mix. After incubation for 40 minutes at room temperature, the reaction is stopped by the addition of 5 μL of a 3% phosphoric acid solution. 10 μL of the reaction is then spotted onto a P30 filtermat and washed three times for 5 minutes in 75 mM phosphoric acid and once in methanol prior to drying and scintillation counting.

JNK = JNK activity; assay type: biochemical; details: 20 μM, data not shown
PKB gamma = PKB gamma (Homo sapiens, UniProt Q9Y243); assay: PKB kinase activity assay; assay type: biochemical
PKB gamma, sequence (Q9Y243 whole entry): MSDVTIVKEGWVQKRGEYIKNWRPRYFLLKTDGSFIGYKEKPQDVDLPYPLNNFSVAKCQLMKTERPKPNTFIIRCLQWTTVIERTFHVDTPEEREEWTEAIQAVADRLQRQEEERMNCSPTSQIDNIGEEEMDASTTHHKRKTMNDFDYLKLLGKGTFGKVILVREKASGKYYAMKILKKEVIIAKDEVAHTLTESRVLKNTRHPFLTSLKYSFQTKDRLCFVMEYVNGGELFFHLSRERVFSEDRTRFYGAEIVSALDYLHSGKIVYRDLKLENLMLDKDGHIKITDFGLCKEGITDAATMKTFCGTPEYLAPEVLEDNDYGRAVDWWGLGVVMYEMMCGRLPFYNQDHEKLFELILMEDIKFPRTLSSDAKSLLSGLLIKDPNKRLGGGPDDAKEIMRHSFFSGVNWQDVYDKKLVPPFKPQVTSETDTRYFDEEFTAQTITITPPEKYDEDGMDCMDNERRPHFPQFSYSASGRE
Experimental: (§2) In a final reaction volume of 25 μL, PKB(h) (5-10 mU) is incubated with 8 mM MOPS pH 7.0, 0.2 mM EDTA, 30 μM GRPRTSSFAEGKK (SEQ ID No. 26), 10 mM MgAcetate and [γ-33P-ATP] (specific activity approx. 500 cpm/pmol, concentration as required). The reaction is initiated by the addition of the MgATP mix. After incubation for 40 minutes at room temperature, the reaction is stopped by the addition of 5 μL of a 3% phosphoric acid solution. 10 μL of the reaction mixture is then spotted onto a P30 filtermat and washed three times for 5 minutes in 75 mM phosphoric acid and once in methanol prior to drying and scintillation counting.

PKB alpha = PKB alpha (Homo sapiens, UniProt P31749); assay: PKB kinase activity assay; assay type: biochemical; details: 20 μM, relative to control
PKB alpha, sequence (P31749 whole entry): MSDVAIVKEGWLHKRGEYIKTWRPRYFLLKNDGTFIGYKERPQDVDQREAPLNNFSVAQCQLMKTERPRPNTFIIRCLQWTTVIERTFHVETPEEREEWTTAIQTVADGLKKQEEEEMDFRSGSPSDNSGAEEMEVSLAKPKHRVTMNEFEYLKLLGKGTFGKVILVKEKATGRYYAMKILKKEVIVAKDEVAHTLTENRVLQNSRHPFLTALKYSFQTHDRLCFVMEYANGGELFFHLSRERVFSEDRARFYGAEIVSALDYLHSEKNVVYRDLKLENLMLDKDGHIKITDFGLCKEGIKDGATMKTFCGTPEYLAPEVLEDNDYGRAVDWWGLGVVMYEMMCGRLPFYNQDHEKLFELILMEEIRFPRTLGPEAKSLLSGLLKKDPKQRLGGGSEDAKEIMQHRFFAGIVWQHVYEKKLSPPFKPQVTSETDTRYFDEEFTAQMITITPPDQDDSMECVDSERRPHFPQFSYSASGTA
Experimental: as §2

PKB beta = PKB beta (Homo sapiens, UniProt P31751); assay: PKB kinase activity assay; assay type: biochemical
PKB beta, sequence (P31751 whole entry): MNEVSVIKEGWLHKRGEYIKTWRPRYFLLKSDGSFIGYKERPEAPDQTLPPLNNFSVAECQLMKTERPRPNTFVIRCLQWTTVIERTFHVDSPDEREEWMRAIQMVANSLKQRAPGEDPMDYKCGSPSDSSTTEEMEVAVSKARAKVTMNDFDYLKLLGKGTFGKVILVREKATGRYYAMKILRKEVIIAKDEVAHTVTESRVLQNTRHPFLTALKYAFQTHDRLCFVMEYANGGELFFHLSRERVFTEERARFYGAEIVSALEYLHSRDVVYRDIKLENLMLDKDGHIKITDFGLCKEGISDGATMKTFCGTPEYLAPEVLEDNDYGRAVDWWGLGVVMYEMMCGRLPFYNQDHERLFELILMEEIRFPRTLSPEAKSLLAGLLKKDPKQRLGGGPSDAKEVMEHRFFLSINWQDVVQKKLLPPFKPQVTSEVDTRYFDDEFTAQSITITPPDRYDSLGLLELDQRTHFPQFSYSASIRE
Experimental: as §2

[3] = system: DU145 prostate cancer cells; assay: MTT growth/proliferation, DU145 cells; assay type: cell-based; details: 48 hours
Experimental: as §1

HL60 leukemic cells = assay: MTT proliferation, HL60 cells; assay type: cell-based; details: MTT assay, data not shown; read-out: IC50 inhibition of proliferation of HL60 leukemic cells
MEK1 (h) = MEK1 (h) (Homo sapiens, UniProt Q02750); assay: MEK1 kinase activity assay; assay type: biochemical
Experimental: The reaction is initiated by the addition of the MgATP. After incubation for 40 minutes at room temperature, 5 μL of this incubation mix is used to initiate an ERK2 (m) assay.

PI3K gamma = PI3K gamma (Homo sapiens, UniProt P48736); assay: PI3K HTRF activity assay; assay type: biochemical; details: final concentration 50 μM
PI3K gamma, sequence (P48736 whole entry, species assumed, the tested form may be a part): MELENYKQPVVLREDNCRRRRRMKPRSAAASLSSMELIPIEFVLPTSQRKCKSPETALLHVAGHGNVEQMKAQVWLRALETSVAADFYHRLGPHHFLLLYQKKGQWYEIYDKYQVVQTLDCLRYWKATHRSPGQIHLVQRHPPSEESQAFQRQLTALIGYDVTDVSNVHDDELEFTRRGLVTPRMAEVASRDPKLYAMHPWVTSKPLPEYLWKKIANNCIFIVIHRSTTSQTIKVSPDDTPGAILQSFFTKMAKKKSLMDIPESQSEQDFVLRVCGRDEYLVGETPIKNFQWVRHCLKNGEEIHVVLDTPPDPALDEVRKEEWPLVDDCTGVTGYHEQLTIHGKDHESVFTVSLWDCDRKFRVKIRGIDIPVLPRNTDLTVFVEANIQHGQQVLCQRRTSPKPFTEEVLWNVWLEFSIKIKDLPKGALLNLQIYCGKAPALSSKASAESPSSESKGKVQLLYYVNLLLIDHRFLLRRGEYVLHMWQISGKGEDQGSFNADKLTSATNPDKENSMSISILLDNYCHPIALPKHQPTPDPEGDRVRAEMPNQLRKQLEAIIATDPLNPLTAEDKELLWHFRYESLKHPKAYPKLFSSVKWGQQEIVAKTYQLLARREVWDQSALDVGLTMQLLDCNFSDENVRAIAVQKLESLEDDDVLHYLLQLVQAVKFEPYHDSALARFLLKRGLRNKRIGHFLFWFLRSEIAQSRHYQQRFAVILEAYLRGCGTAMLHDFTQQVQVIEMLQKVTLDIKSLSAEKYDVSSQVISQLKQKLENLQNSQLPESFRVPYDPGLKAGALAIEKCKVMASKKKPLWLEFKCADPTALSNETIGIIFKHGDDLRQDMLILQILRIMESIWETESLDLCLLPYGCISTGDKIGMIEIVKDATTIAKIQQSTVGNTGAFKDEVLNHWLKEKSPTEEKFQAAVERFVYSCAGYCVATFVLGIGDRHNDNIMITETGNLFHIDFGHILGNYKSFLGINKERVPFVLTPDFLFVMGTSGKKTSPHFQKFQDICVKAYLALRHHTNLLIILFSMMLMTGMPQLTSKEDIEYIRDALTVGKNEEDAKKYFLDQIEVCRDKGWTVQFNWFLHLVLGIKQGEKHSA
Experimental: In a final reaction volume of 20 μL, the test PI3K is incubated in assay buffer containing 10 μM phosphatidylinositol-4,5-bisphosphate and MgATP. The reaction is initiated by the addition of the MgATP mix. After incubation for 30 minutes at room temperature, the reaction is stopped by the addition of 5 μL of stop solution containing EDTA and biotinylated phosphatidylinositol-3,4,5-trisphosphate. Finally, 5 μL of detection buffer is added (containing europium-labelled anti-GST monoclonal antibody, GST-tagged GRP1 PH domain and streptavidin-allophycocyanin). The test plate is then read in time-resolved fluorescence mode and the homogenous time-resolved fluorescence (HTRF) signal is determined according to the formula HTRF=10000×(Em665 nm/Em620 nm).

For “Dend 10-10(4) whose RSKAKNPLYR peptides are entirely D-amino acids and pegylated with two ethylene glycol units [Dend 10-10(4)DP]”, the “apoptosis in HT-29 cells” value [1] was “substantial level of apoptosis”, the “inhibition of the activity of c-Yes relative to controls” value (human Yes) was 99% and the “inhibition of growth/proliferation of MCF-7 cells” value [2] was “inhibited growth/proliferation”. The “% Kinase inhibition c-RAF” value (c-RAF (h); 20 μM, relative to control) was 93%, the “Percentage (%) kinase inhibition c-RAF” value (c-RAF (h); dendrimer conc. 1 μM) was 79% and the “Percentage (%) kinase inhibition c-RAF” value (c-RAF (h); dendrimer conc. 2 μM) was 81%. The “Percentage (%) kinase inhibition c-RAF” value (c-RAF (h); dendrimer conc. 250 nm) was 64%, the “Percentage (%) kinase inhibition c-RAF” value (c-RAF (h); dendrimer conc. 500 nm) was 74% and the “effect on activity of JNK” value (JNK) was “without any effect”. The “% Kinase inhibition PKB gamma” value (PKB gamma; 20 μM, relative to control) was 96%, the “Percentage (%) kinase inhibition PKB gamma” value (PKB gamma; dendrimer conc. 1 μM) was 93% and the “Percentage (%) kinase inhibition PKB gamma” value (PKB gamma; dendrimer conc. 2 μM) was 92%. For the same molecule, the “Percentage (%) kinase inhibition PKB gamma” value (PKB gamma; dendrimer conc. 250 nm) was 94%, the “Percentage (%) kinase inhibition PKB gamma” value (PKB gamma; dendrimer conc. 500 nm) was 98% and the “% Kinase inhibition PKB alpha” value (PKB alpha) was 29%. The “% Kinase inhibition PKB beta” value (PKB beta; 20 μM, relative to control) was 85%, the “Percentage (%) kinase inhibition PKB beta” value (PKB beta; dendrimer conc. 1 μM) was 68% and the “Percentage (%) kinase inhibition PKB beta” value (PKB beta; dendrimer conc. 2 μM) was 70%. For the same molecule, the “Percentage (%) kinase inhibition PKB beta” value (PKB beta; dendrimer conc. 250 nm) was 53%, the “Percentage (%) kinase inhibition PKB beta” value (PKB beta; dendrimer conc. 500 nm) was 66% and the “inhibition of growth/proliferation of DU145 cells” value [3] was “inhibited growth/proliferation”. For the same molecule, the IC50 (HL60 leukemic cells) was 2 µM, the “% Kinase inhibition MEK1” value (MEK1 (h); 20 μM, relative to control) was 90% and the “Percentage (%) kinase inhibition MEK1” value (MEK1 (h); dendrimer conc. 1 μM) was 76%. For the same molecule, the “Percentage (%) kinase inhibition MEK1” value (MEK1 (h); dendrimer conc. 2 μM) was 88%, the “Percentage (%) kinase inhibition MEK1” value (MEK1 (h); dendrimer conc. 250 nm) was 2% and the “Percentage (%) kinase inhibition MEK1” value (MEK1 (h); dendrimer conc. 500 nm) was 34%.
For `CC(C)C[C@H](NC(=O)[C@@H]1CCCN1C(=O)[C@H](CC(N)=O)NC(=O)[C@H](CCCCN)NC(=O)[C@H](C)NC(=O)[C@H](CCCCN)NC(=O)[C@H](CO)NC(=O)[C@@H](N)CCCNC(=N)N)C(=O)N[C@@H](Cc1ccc(O)cc1)C(=O)N[C@@H](CCCNC(=N)N)C(=O)NCCCC[C@H](NC(=O)[C@H](CCCCNC(=O)[C@H](CCCCNC(=O)[C@H](CCCNC(=N)N)NC(=O)[C@H](Cc1ccc(O)cc1)NC(=O)[C@H](CC(C)C)NC(=O)[C@@H]1CCCN1C(=O)[C@H](CC(N)=O)NC(=O)[C@H](CCCCN)NC(=O)[C@H](C)NC(=O)[C@H](CCCCN)NC(=O)[C@H](CO)NC(=O)[C@@H](N)CCCNC(=N)N)NC(=O)[C@H](CCCNC(=N)N)NC(=O)[C@H](Cc1ccc(O)cc1)NC(=O)[C@H](CC(C)C)NC(=O)[C@@H]1CCCN1C(=O)[C@H](CC(N)=O)NC(=O)[C@H](CCCCN)NC(=O)[C@H](C)NC(=O)[C@H](CCCCN)NC(=O)[C@H](CO)NC(=O)[C@@H](N)CCCNC(=N)N)NC(=O)[C@H](CCCCNC(=O)[C@H](CCCNC(=N)N)NC(=O)[C@H](Cc1ccc(O)cc1)NC(=O)[C@H](CC(C)C)NC(=O)[C@@H]1CCCN1C(=O)[C@H](CC(N)=O)NC(=O)[C@H](CCCCN)NC(=O)[C@H](C)NC(=O)[C@H](CCCCN)NC(=O)[C@H](CO)NC(=O)[C@@H](N)CCCNC(=N)N)NC(=O)[C@H](CCCNC(=N)N)NC(=O)[C@H](Cc1ccc(O)cc1)NC(=O)[C@H](CC(C)C)NC(=O)[C@@H]1CCCN1C(=O)[C@H](CC(N)=O)NC(=O)[C@H](CCCCN)NC(=O)[C@H](C)NC(=O)[C@H](CCCCN)NC(=O)[C@H](CO)NC(=O)[C@@H](N)CCCNC(=N)N)C(=O)NCCCC[C@H](NC(=O)[C@H](CCCCNC(=O)[C@H](CCCNC(=N)N)NC(=O)[C@H](Cc1ccc(O)cc1)NC(=O)[C@H](CC(C)C)NC(=O)[C@@H]1CCCN1C(=O)[C@H](CC(N)=O)NC(=O)[C@H](CCCCN)NC(=O)[C@H](C)NC(=O)[C@H](CCCCN)NC(=O)[C@H](CO)NC(=O)[C@@H](N)CCCNC(=N)N)NC(=O)[C@H](CCCCNC(=O)[C@H](CCCCNC(=O)[C@H](CCCNC(=N)N)NC(=O)[C@H](Cc1ccc(O)cc1)NC(=O)[C@H](CC(C)C)NC(=O)[C@@H]1CCCN1C(=O)[C@H](CC(N)=O)NC(=O)[C@H](CCCCN)NC(=O)[C@H](C)NC(=O)[C@H](CCCCN)NC(=O)[C@H](CO)NC(=O)[C@@H](N)CCCNC(=N)N)NC(=O)[C@H](CCCNC(=N)N)NC(=O)[C@H](Cc1ccc(O)cc1)NC(=O)[C@H](CC(C)C)NC(=O)[C@@H]1CCCN1C(=O)[C@H](CC(N)=O)NC(=O)[C@H](CCCCN)NC(=O)[C@H](C)NC(=O)[C@H](CCCCN)NC(=O)[C@H](CO)NC(=O)[C@@H](N)CCCNC(=N)N)NC(=O)[C@H](CCCCNC(=O)[C@H](CCCNC(=N)N)NC(=O)[C@H](Cc1ccc(O)cc1)NC(=O)[C@H](CC(C)C)NC(=O)[C@@H]1CCCN1C(=O)[C@H](CC(N)=O)NC(=O)[C@H](CCCCN)NC(=O)[C@H](C)NC(=O)[C@H](CCCCN)NC(=O)[C@H](CO)NC(=O)[C@@H](N)CCCNC(=N)N)NC(=O)[C@H](CCCNC(=N)N)NC(=O)[C@H](Cc1ccc(O)cc1)NC(=O)[C@H](CC(C)C)NC(=O)[C@@H]1CCCN1C(=O)[C@H](CC(N)=O)NC(=O)[C@H](CCCCN)NC(=O)[C@H](C)NC(=O)[C@H](CCCCN)NC(=O)[C@H](CO)NC(=O)[C@@H](N)CCCNC(=N)N)C(=O)NCCC(N)=O` [Dend 10-10(4)], the “PIK3 gamma % activity relative to control” value (PI3K gamma) was 11%, the inhibition at 1 µM (c-RAF (h); dendrimer conc. 1 μM, read-out: Percentage (%) kinase inhibition c-RAF) was 71% and the inhibition at 1 µM (PKB gamma; dendrimer conc. 1 μM, read-out: Percentage (%) kinase inhibition PKB gamma) was 99%. For the same molecule, the inhibition at 1 µM (PKB beta; dendrimer conc. 1 μM, read-out: Percentage (%) kinase inhibition PKB beta) was 70% and the inhibition at 1 µM (MEK1 (h); dendrimer conc. 1 μM, read-out: Percentage (%) kinase inhibition MEK1) was 83%.
